Experimental data published in patent US20190166840A1, “SUBSTITUTED PYRAZOLINYL DERIVATIVES, PROCESSES FOR THEIR PREPARATION AND THEIR USE AS HERBICIDES AND/OR PLANT GROWTH REGULATORS” (BAYER CROPSCIENCE AKTIENGESELLSCHAFT, priority 2016, published 2019).

Target: T1, photosystem II (PS II) (Spinacia oleracea, UniProt P69560)
T1 construct: the chloroplasts were osmotically ruptured and the thylakoid membranes were then obtained by centrifugation; from tissue; host or cells: spinach leaves (thylakoid membrane preparation)
Assay: Activity determination of photosystem II (PS II) in thylakoid membranes, DCPIP reduction
Type: biochemical
Settings: spinach thylakoid membranes, DCPIP 120 μM, 10 min at 22° C. with illumination; read-out: pI50 (converted)
Method: Measurement of PS II Activity in Thylakoid Membranes
1. Preparation of the Thylakoid Membranes
Cooled fresh spinach leaves were comminuted and homogenized in 50 mM phosphate buffer, pH 6.8, 10 mM KCl, 0.34 M sucrose (sucrose buffer) (mixer, 1 g of plant material/ml). The homogenate was subsequently filtered through 4 layers of Miracloth and the chloroplasts were obtained by centrifugation: • 10 minutes (min) of centrifugation at 4400×g (4° C.). • The sediment was suspended in 25 ml of sucrose buffer and centrifuged for another 10 min at 4400×g (4° C.). • The sediment was then suspended in 40 ml of 50 mM phosphate buffer, pH 6.8, 10 mM KCl, without sucrose. • In this step, the chloroplasts were osmotically ruptured and the thylakoid membranes were then obtained by centrifugation (10 min, 4400×g, 4° C.). The membrane sediment was finally suspended in about 20 ml of 50 mM phosphate buffer, pH 6.8, 10 mM KCl. • After protein determination and activity determination, the membrane suspension was aliquoted and frozen in liquid nitrogen. The aliquots were stored at −80° C. Under these conditions, the photosystem II preparation is storage-stable for at least three months.
2. Activity Determination of the Photosystem II (PS II)
The electron transfer from PS II to an artificial electronic captor, 2,6-dichlorophenol-indophenol (DCPIP), is measured under the action of light. The concentration of the blue oxidized form of DCPIP can be determined spectraphotometrically at the wavelength l=595 nm. The enzyme-catalyzed reduction of DCPIP results in a colourless leuco form and thus to a decrease of absorption at 595 nm in the reaction batch, which is measured as a function of time.
The activity determination was carried out in microtiter plates (96 wells) in a reaction volume of 200 μl. 155 μl of dilute membrane suspension in 50 mM phosphate buffer, pH 6.8, 10 mM KCl were initially charged. Depending on the activity of the PS II preparation, the dilution was adjusted such that measurement of the decrease in absorption (λ=595 nm) was linear for at least 10 min.
Typical dilution series of the test compounds comprised 10 concentration steps in the range between 10^−9and 10^−5 M.
On each microtiter plate, a known PS II inhibitor, e.g. metribuzin, was used as standard for assessing the quality of the PS II test.
The reaction was initiated by addition of 40 μl DCPIP solution (600 μM in distilled water); the final concentration of DCPIP was 120 μM.
Absorption was measured over a period of 10 min at 22° C. and with illumination. For calculating the active compound concentration at which 50% of the enzyme activity is inhibited (IC50), the relative enzymatic activity (in %) was plotted as a function of the logarithm of the active compound concentration.

IC50 | Structure (SMILES)
5.01 µM | CC1=C(C)C(O)N(C2=NN(c3ccccc3)C(C(F)(F)F)C2)C1=O (stereo not drawn) [I.2-1413]

Tested on: Veronica persica
Assay: Pre-emergence herbicidal action, VERPE
Type: in vivo
Settings: application rate 1280 g/ha, scored visually after about 3 weeks
Excerpt: Pre-Emergence Herbicidal Action Seeds of mono- and dicotyledonous weed plants or crop plants were placed in sandy loam in wood fibre pots and covered with soil. The formulated compounds of the general formula (I) according to the invention were then applied to the surface of the covering soil in the form of an aqueous suspension or emulsion at an application rate of 600 l of water/ha (converted) with addition of 0.2% wetting agent. After the treatment, the pots were placed in a greenhouse and kept under good growth conditions for the test plants. After about 3 weeks, the effect was scored visually in percent in comparison to untreated controls. For example, 100% activity=the plants have died, 50% herbicidal activity or damage=plants reduced to 50% or plant material reduced by 50%, 0% activity=like control plants. Here, in the biological tests, the compounds of the general formula (I) according to the invention were in each case employed in a formulation, with the numerations of Tables I.1 to I.77 also applying here. Here, the herbicidal action of the compounds of the general formula (I) according to the invention was examined for the following harmful plants: VERPE=Veronica persica The respective herbicidal action was in each case determined at the same point in time after application of the formulation in question, i.e. damage of the harmful plant in question in %. Pre-emergence herbicidal action of the compounds of the general formula (I) according to the invention: […]

Structure (SMILES) | Pre-emergence herbicidal action VERPE, damage of the harmful plant
CC1=C(C)C(O)N(C2=NN(c3ccccn3)C(C)(C)C2)C1=O (stereo not drawn) [I.2-132] | 30%
CCC(=O)OC1C(C)=C(C)C(=O)N1C1=NN(c2ccccn2)C(C)(C)C1 (stereo not drawn) [I.23-132] | 60%
CCC(=O)OC1C(C)=C(C)C(=O)N1C1=NN(c2ccccc2)CC1 (stereo not drawn) [I.23-621] | 0%
CCC(=O)OC1C(C)=C(C)C(=O)N1C1=NN(c2ccccc2)C(C(F)(F)F)C1 (stereo not drawn) [I.23-1413] | 60%
CCC(=O)OC1C(C)=C(Cl)C(=O)N1C1=NN(C)C(c2ccccc2)C1 (stereo not drawn) [I.24-1126] | 0%
